Laboratory results as given in ChEMBL document CHEMBL5241109, “Roles and drug development of METTL3 (methyltransferase-like 3) in anti-tumor therapy” (Eur J Med Chem, 2022).

Assays:
[1] = target: T1, N6-adenosine-methyltransferase catalytic subunit (Homo sapiens, UniProt Q86U44); assay: Inhibition of METTL3 (unknown origin)
[2] = target: T1, N6-adenosine-methyltransferase catalytic subunit; assay: Inhibition of METTL3 (unknown origin) assessed as remaining activity at 500 uM relative to control
[3] = Efflux ratio of apparent permeability across basolateral to apical side over apical to basolateral side in human Caco-2 cells; format: ADME, cell-based
[4] = Apparent permeability across basolateral to apical side in human Caco-2 cells; format: ADME, cell-based
[5] = Apparent permeability across apical to basolateral side in human Caco-2 cells; format: ADME, cell-based

T1 sequence (Q86U44 whole entry): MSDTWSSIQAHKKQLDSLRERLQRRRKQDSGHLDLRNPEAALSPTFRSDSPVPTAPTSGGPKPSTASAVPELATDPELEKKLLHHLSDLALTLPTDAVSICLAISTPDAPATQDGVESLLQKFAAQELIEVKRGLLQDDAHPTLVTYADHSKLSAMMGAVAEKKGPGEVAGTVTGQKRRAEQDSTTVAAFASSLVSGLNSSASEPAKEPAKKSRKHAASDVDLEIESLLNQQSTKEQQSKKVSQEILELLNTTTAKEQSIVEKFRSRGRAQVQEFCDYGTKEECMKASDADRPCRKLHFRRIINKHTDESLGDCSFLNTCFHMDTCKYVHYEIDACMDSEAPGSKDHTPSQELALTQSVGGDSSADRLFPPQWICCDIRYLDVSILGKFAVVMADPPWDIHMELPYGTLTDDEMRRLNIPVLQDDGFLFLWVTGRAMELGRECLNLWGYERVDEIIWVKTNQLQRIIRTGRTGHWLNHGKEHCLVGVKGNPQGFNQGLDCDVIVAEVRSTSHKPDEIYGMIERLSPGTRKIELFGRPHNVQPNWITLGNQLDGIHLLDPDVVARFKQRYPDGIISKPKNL

Row | IC50 [1] | Activity [2] | SMILES | other results
1 | > 250 µM | – | Nc1ncnc2c1ncn2[C@@H]1O[C@H](C(=O)NCC2CCNCC2)[C@@H](O)[C@H]1O | –
2 | 98 µM | 20% | CNC1CCC(O)(Cn2cnc3c(N)ncnc32)C(O)C1 (configuration not stated) | –
3 | – | – | CC[C@H]1OC(=O)[C@H](C)[C@@H](O[C@H]2C[C@@](C)(OC)[C@@H](O)[C@H](C)O2)[C@H](C)[C@@H](O[C@@H]2O[C@H](C)C[C@H](N(C)C)[C@H]2O)[C@](C)(O)C[C@@H](C)C(=O)[C@H](C)[C@@H](O)[C@]1(C)O [ERYTHROMYCIN] | Ratio [3]: 62.9; Papp [4]: 17.5 10^-6 cm/s; Papp [5]: 0.2 10^-6 cm/s
4 | 8.7 µM | – | Nc1ncnc2c1ncn2[C@@H]1O[C@H](C(=O)NCCCCN2CCCC2)[C@@H](O)[C@H]1O | –
5 | 332 µM | 38% | Nc1ncnc2c1ncn2[C@@H]1O[C@H](C(=O)NCCCNC(=O)c2ccccn2)[C@@H](O)[C@H]1O | –
6 | 495 µM | – | Nc1ncnc2c1ncn2[C@@H]1O[C@H](CO)[C@@H](O)[C@H]1O [ADENOSINE] | –
7 | > 250 µM | 107% | Nc1ncnc2c1ncn2C[C@H]1OC[C@@H](N)[C@H](O)[C@@H]1O | –
8 | – | – | COCCc1ccc(OCC(O)CNC(C)C)cc1 (configuration not stated) [METOPROLOL] | efflux ratio [3]: 1.1; Papp B→A [4]: 33.3 ×10⁻⁶ cm/s; Papp A→B [5]: 31.4 ×10⁻⁶ cm/s
9 | 65 µM | 18% | CN1CCC(NC(=O)[C@H]2O[C@@H](n3cnc4c(N)ncnc43)[C@H](O)[C@@H]2O)CC1 | –
